Source: PMC3816687, “Relationships between Cargo, Cell Penetrating Peptidesand Cell Type for Uptake of Non-Covalent Complexes into Live Cells” (Pharmaceuticals, 2013)
Like-named read-outs stand apart in the source and are kept apart here. *1 amine or outer side, *2 acyl side, *3 side chain or, on linkers, in order; H or OH if unused. Cysteamide = C(CS[*:3])N[*:1]

Assays:
Jurkat cells = assay: Internalization of β-galactosidase into Jurkat cells, X-gal staining; format: cell-based, Human; conditions: complexes of β-galactosidase and CPP, ratio 1:10, X-Gal staining
Method: (§1) A detailed description of formation of complexes with peptides and proteins is given in a previous publication. Briefly, cargo proteins (ATTO488-BSA, MW ≈ 68 kDa, β-galactosidase, MW ≈ 540 kDa) and the calculated volume of stock solution of CPPs or JBS-Proteoducin were dissolved separately in 100 µL of 1× PBS). Both solutions were thoroughly mixed by repeated pipetting. The mixture was incubated for 30 minutes at 37 °C to achieve complex formation. The molar ratio of cargo to CPPs was usually calculated to 1:10. For internalization of higher amounts of cargo, both the amount of protein and stock solution of CPP or cocktail, respectively, were multiplied. Complexes of the enzyme β-galactosidase and JBS-Proteoducin were formed from 1 µg β-galactosidase and 1 µL stock solution of JBS-Proteoducin under the described conditions.
The thoroughly washed cell pellet was suspended in 200 µL of complex solution followed by 400 µL of serum free medium, gently mixed and transferred into 24-well plates. […] After addition of 1.4 mL of complete culture medium incubation was continued at 37 °C for approx. 2 h in a humidified atmosphere containing 5% CO2. The cells were washed by spinning down twice with PBS, three times with glycine buffer (pH 3.0) and twice with PBS.
(§2) Staining of the cells took place in multiwell-plates. Jurkat and Leishmania cells were stained according to the instructions described in [24], using a staining solution containing potassium ferrocyanide, potassium ferricyanide and X-gal. Leishmania cells were stained after finishing the above described transduction protocol. For Jurkat cells the staining was performed after transferring cells from spinning tubes used in the last washing step to 24-well plates. Cells were incubated in staining solution overnight and directly observed in a microscope using a 400-fold magnification.

Leishmania tarentolae [1] = assay: Internalization of β-galactosidase into Leishmania tarentolae, X-gal staining; format: cell-based; conditions: molar ratios 1:5, 1:10, 1:20 of cargo and CPP
Method: as §1
For transduction cells in an early stage of development were used. To this end stock cultures were diluted 1:10 the day before the experiment into 10 mL of culture medium in 25 cm^2-ventilated tissue culture flasks and were incubated overnight in the dark at 26 °C for optimal proliferation. Cell suspensions with an OD of 1.2 (ca. 4 × 10^7 cells/mL) were used for transduction. The cells were thoroughly washed twice with PBS (5 mL each) by centrifugation (2,000 × g, 3 min). Pellets were resuspended in the original volume of PBS containing 0.1% BSA and aliquoted into 24-well plates. Four hundred µL of cell suspension were used per experiment. Two hundred µL of the complex solutions were added to these cells and mixtures were incubated for 1 h at 26 °C in the dark with gentle agitation. Successively, 1 mL of complete growth medium (LEXSY BHI) was added per sample and incubation was continued at 26 °C for 2 h. Cells were washed twice with PBS (2 mL each) by centrifugation (2,000 × g, 3 min) prior to analysis of transduction.
as §2

Leishmania tarentolae [2] = assay: Cytotoxicity test for Leishmania tarentolae (morphology and motility); format: cell-based
Method: Leishmania cells were cultivated as described previously, resuspended in PBS and treated with increasing concentrations of cocktails and CPPs for 1 h. Cytotoxic effects were monitored by changes in morphology and motility observed using a microscope at 400-fold magnification.

HeLa cells [3] = conditions: non-covalent complexes, X-Gal staining; cited from earlier work
Source text: HeLa cells: As shown in our preceding publication, the CPP cocktail JBS-Proteoducin can internalize enzymatic active β-galactosidase into all cell types investigated, including difficult to transfect Kasumi-1 cells. The active enzyme was transported not only into all types of cells but all of the observed cells are also positively stained using the β-galactosidase substrate 5-bromo-4-chloro-indolyl-β-D-galactopyranoside (X-Gal).

HeLa cells [4] = conditions: non-covalent complexes; cited from earlier work
Method: Table 4 Intracellular amounts and concentrations. Internalized amounts are calculated from fluorescence intensities in the homogenate directly or after separation by SDS-PAGE. In the case of nucleoside triphosphates quantification was performed by fluorescence spectrometry. Estimation of cell volumes allows the calculation of intracellular concentrations. […] The rank order for the uptake of β-galactosidase into HeLa cells: JBS-Proteoducin > MPGα ≥ MPGβ > CAD-2 >> CPPP-2 // HIV-TAT = penetratin provides evidence for different requirements of enzyme and nucleotide for co ...

Leishmania tarentolae [5] = assay: Transduction of ATTO488-BSA into Leishmania tarentolae; format: cell-based; conditions: molar ratio 1:10, Leishmania tarentolae, fluorescence plate reader after cell lysis
Method: as §1, with “Complexes of the enzyme β-galactosidase and JBS-Proteoducin were formed from 1 µg β-galactosidase and 1 µL stock solution of JBS-Proteoducin under the described conditions.” left out
For confocal microscopy of fixed and living cells, a LSM 710 laser scanning confocal microscope was used as previously described. […] To avoid bleed-through effects in multi-fluorescence staining experiments, each dye was scanned independently in a multitracking mode. […]
Quantitative fluorescence measurements on internalized fluorescent nucleotide and SDS-PAGE with fluorescent proteins allow the calculation of the internalized amount of cargo. […] The mean volume was calculated to 1.2 × 10^−5 µL. […] Uptake of ATTO488-BSA into Leishmania tarentolae was estimated with a fluorescence plate reader after cell lysis. The volume of Leishmania tarentolae was calculated to 2.0 × 10^−7 µL.

Leishmania tarentolae [6] = conditions: non-covalent complexes; cited from earlier work
Source text: Formation of non-covalent complexes between cargo and CPP occurs by optimized interaction of the CPP with the surface of the cargo. These complexes are stabilized by ionic, polar, π-electron-cation, or hydrophobic interactions, hydrogen bonds and common interactions between molecules. Thus, for the same cell type different cargoes show different rank orders for CPPs.

COS-7 cells = assay: Degradation of CPPs by secreted and surface bound proteases of COS-7 cells; conditions: 60 min incubation with 0.3 × 10^6 intact cells per well, PBS, 37 °C, 5% CO2, RP18 HPLC, 220 nm
Method: In a 6-well-plate with 0.3 × 10^6 cells per well the different cell types were cultivated overnight under optimized conditions. Then medium was removed by aspiration (adherent cell) or centrifugation (suspension cells) and washed cells were incubated with CPPs in phosphate buffer solution (PBS). Incubation was performed under the same conditions as the transduction of complexes with the cargo for 1 h at 37 °C in a humidified atmosphere containing 5% CO2. After 15, 30, 45 and 60 min samples of 200 µL were taken and the proteolytic reaction was stopped by addition of 50 µL 37 perc. HCl. After freezing and lyophilization samples were analyzed by analytical high performance liquid chromatography (HPLC), using a RP18 column (Vydac 218TP). In case of MPGβ, for elution a gradient was used from 10% acetonitrile and 90% water, both containing 0.1% trifluoroacetic acid to 60% acetonitrile and 40% water in 50 min. […] The flow rate was 1.0 ml/min and detection was performed at 220 nm.

[7] = 1 h in PBS with increasing concentrations, changes in morphology and motility, microscope 400-fold

| Substance | rank order for internalization of β-galactosidase into Jurkat cells (Jurkat cells) | rank order for uptake efficiency of β-galactosidase into Leishmania tarentolae (Leishmania tarentolae [1]) | Cytotoxicity in Leishmania tarentolae (Leishmania tarentolae [2]; [7]) [µM] | rank order for internalization of β-galactosidase into HeLa cells (HeLa cells [3]) | rank order of uptake efficiency of ATTO488-dUTP into HeLa cells (HeLa cells [4]) | Internalized amount, amol per cell (Leishmania tarentolae [5]; cargo ATTO488-BSA 1 µg + CPP) | Internalized amount, amol per cell (Leishmania tarentolae [5]; cargo ATTO488-BSA 10 µg + CPP) | Cytotoxicity in Leishmania tarentolae (Leishmania tarentolae [2]) [µM] | rank order for transport of ATTO488-labeled BSA into Leishmania (Leishmania tarentolae [6]) | stability against proteolytic cleavage by COS-7 cells (HPLC peak) (COS-7 cells) | sensitivity of Leishmania tarentolae cells (Leishmania tarentolae [2]; concentrations of 10 µM, morphology and motility) |
| --- | --- | --- | --- | --- | --- | --- | --- | --- | --- | --- | --- |
| KLPVM [CPPP-2, cell penetrating pentapeptide, 2 positive charges] | JBS-Proteoducin > MPGβ > MPGα > CAD-2 >> CPPP-2 | CAD-2 > MPGα > Histone > MPGβ >> penetratin ≥ HIV-TAT ≥ CPPP-2 | ≥ 100 | JBS-Proteoducin > MPGα ≥ MPGβ > CAD-2 >> CPPP-2 // HIV-TAT, penetratin | JBS-Nucleoducin > CAD-2 > MPGα ≥ MPGβ > penetratin >> CPP-2 | – | – | – | – | – | – |
| Ac-GALFLAFLAAALSLMGLWSQPKKKRKV-NH-CH2-CH2-SH (Ac-GALFLAFLAAALSLMGLWSQPKKKRKV-Cysteamide; SMILES CSCC[C@H](NC(=O)[C@H](CC(C)C)NC(=O)[C@H](CO)NC(=O)[C@H](CC(C)C)NC(=O)[C@H](C)NC(=O)[C@H](C)NC(=O)[C@H](C)NC(=O)[C@H](CC(C)C)NC(=O)[C@H](Cc1ccccc1)NC(=O)[C@H](C)NC(=O)[C@H](CC(C)C)NC(=O)[C@H](Cc1ccccc1)NC(=O)[C@H](CC(C)C)NC(=O)[C@H](C)NC(=O)CNC(C)=O)C(=O)NCC(=O)N[C@@H](CC(C)C)C(=O)N[C@@H](Cc1c[nH]c2ccccc12)C(=O)N[C@@H](CO)C(=O)N[C@@H](CCC(N)=O)C(=O)N1CCC[C@H]1C(=O)N[C@@H](CCCCN)C(=O)N[C@@H](CCCCN)C(=O)N[C@@H](CCCCN)C(=O)N[C@@H](CCCNC(=N)N)C(=O)N[C@@H](CCCCN)C(=O)N[C@H](C(=O)NCCS)C(C)C) [MPGα, MPG cell penetrating peptide, 5 positive charges] | JBS-Proteoducin > MPGβ > MPGα > CAD-2 >> CPPP-2 | CAD-2 > MPGα > Histone > MPGβ >> penetratin ≥ HIV-TAT ≥ CPPP-2 | – | JBS-Proteoducin > MPGα ≥ MPGβ > CAD-2 >> CPPP-2 // HIV-TAT, penetratin | JBS-Nucleoducin > CAD-2 > MPGα ≥ MPGβ > penetratin >> CPP-2 | 0.8 x 10^−2 amol per cell | 3.3 x 10^−2 amol per cell | ≤ 5 | MPGα >> CAD-2 > histone | – | – |
| Ac-GALFLGFLGAAGSTMGAWSQPKKKRKV-NH-CH2-CH2-SH [MPGβ, MPG cell penetrating peptide, 5 positive charges] | JBS-Proteoducin > MPGβ > MPGα > CAD-2 >> CPPP-2 | CAD-2 > MPGα > Histone > MPGβ >> penetratin ≥ HIV-TAT ≥ CPPP-2 | ≤ 5 | JBS-Proteoducin > MPGα ≥ MPGβ > CAD-2 >> CPPP-2 // HIV-TAT, penetratin | JBS-Nucleoducin > CAD-2 > MPGα ≥ MPGβ > penetratin >> CPP-2 | – | – | – | – | strongly reduced | very sensitive |
| YGRKKRRQRRR-amide [HIV-TAT (47-57), amphiphilic-cationic cell penetrating peptide, 9 positive charges] | – | CAD-2 > MPGα > Histone > MPGβ >> penetratin ≥ HIV-TAT ≥ CPPP-2 | ≥ 30 | JBS-Proteoducin > MPGα ≥ MPGβ > CAD-2 >> CPPP-2 // HIV-TAT, penetratin | not able to transport | – | – | – | – | – | – |
